Tested on: HBV cccDNA-dependent precore RNA in DESHAe82 cells
Assay: DESHAe82 / DE19 cell culture system, cccDNA-derived precore RNA by qRT-PCR, MacSynergy II
Type: cell-based, Hepatitis B virus
Settings: ETV μM: 0.01, 0.0032, 0.001, 0.0003, 0.0001, 3E−05, 0
Experimental: In vitro combination studies were conducted using a modification of the assay system described in Cai et al (Antimicrobial Agents Chemotherapy, 2012. Vol 56(8):4277-88). A previously developed HepDE19 cell culture system (Guo et al. J. Virology (2007) 81(22): 12472-12484) supports HBV DNA replication and cccDNA formation in a tetracycline (Tet)-regulated manner, and produces a detectable reporter molecule which is dependent upon the production and maintenance of cccDNA.
In the HepDE19 cell culture system, the reporters are the precore RNA and its cognate protein product, the secreted HBV “e antigen” (HBeAg). In HepDE19 cells, precore RNA and HBeAg are only produced from the cccDNA circular template, because the ORF of HBeAg and its 5′ RNA leader are separated between the opposite ends of the integrated viral genome, and only become contiguous with the formation of cccDNA. Although an assay based on the HepDE19 cell culture system is effective for determining activity, the results of high throughput screening may be complicated because the HBeAg ELISA cross reacts with a viral HBeAg homologue, which is the core antigen (HBcAg) expressed largely in a cccDNA-independent fashion in HepDE19 cells. To overcome this complication, an alternative cell culture system (designated herein as DESHAe82 cell culture system and described in PCT/EP/2015/06838) has been developed which includes an in-frame HA epitope tag in the N-terminal coding sequence of HBeAg in the transgene of DESHAe82 cells, without disrupting any cis-element critical for HBV replication, cccDNA transcription, and HBeAg secretion.
A chemiluminescence ELISA assay (CLIA) for the detection of HA-tagged HBeAg with HA antibody serving as capture antibody and […] has been developed, eliminating the contaminating signal from HBcAg. […] In addition, a protocol for quantitative reverse transcription and polymerase chain reaction (qRT-PCR) that is specific for detection of precore RNA in either DE19 or DESHAe82 cells was developed and is also used for the detection of the cccDNA-dependent mRNA (precore RNA) that is translated to produce HBeAg or HA-HBeAg.
To test the compound combinations, DESHAe82 or DE19 cells (as indicated in examples) were plated in 96 well tissue-culture treated microtiter plates in DMEM/F12 medium supplemented with 10% fetal bovine serum+1% penicillin-streptomycin with Tet, and incubated in a humidified incubator at 37° C. and 5% CO2 overnight. […] The two inhibitors were tested both singly as well as in combinations in a checkerboard fashion such that each test concentration of inhibitor A was combined with each test concentration of inhibitor B to determine their combination effects on inhibition of cccDNA formation and expression. Untreated negative control samples (0.5% DMSO or media only) were included on each plate in multiple wells. Following a 9 day-incubation, media was removed and cells were subjected to RNA extraction to measure the cccDNA-dependent precore mRNA level. Total cellular RNAs were extracted using a 96-well format total RNA isolation kit ([…]-NAGEL, Cat. 740466.4) by following the instruction of manufacturer (vacuum manifold processing, two more extra washes of Buffer RA4). RNA samples were eluted in RNAase-free water. Quantitative real-time RT-PCR was performed with a Roche LightCycler480 and RNA Master Hydrolysis probe (Catalog number 04991885001, Roche) using primers and conditions for specific detection of cccDNA-dependent precore RNA. GAPDH mRNA levels were also detected by standard methods and used to normalize the precore RNA levels.

CC[C@@H](C)NS(=O)(=O)c1ccc(F)c(C(=O)Nc2ccc(F)c(F)c2)c1 [Compound 3]
Average percent inhibition versus negative control (precore RNA) (Compound 3 0.032 μM): −26.280%
Average percent inhibition versus negative control (precore RNA) (Compound 3 0.100 μM): −86.920%
Average percent inhibition versus negative control (precore RNA) (Compound 3 0.317 μM): 36.240%
Average percent inhibition versus negative control (precore RNA) (Compound 3 1.001 μM): 67.120%
Average percent inhibition versus negative control (precore RNA) (Compound 3 3.165 μM): 90.600%
Average percent inhibition versus negative control (precore RNA) (Compound 3 10 μM): 84.340%

Source: patent publication US20220265817A1, “THERAPEUTIC COMPOSITIONS AND METHODS FOR TREATING HEPATITIS B” (priority 2017, published 2022)
